Data published in patent US20120100990A1, “4 -AMINOPICOLINATES AND THEIR USE AS HERBICIDES” (SYNGENTA CROP PROTECTION LLC, priority 2009, published 2012).

What was measured:
Type in all cases: in vivo
[1] = test system: Amaranthus retroflexus (AMARE); assay: Post-emergence biological efficacy, glasshouse pot test; conditions: 312 h, 1,000 g/ha, evaluated after 13 days, 100=total damage, 0=no damage, read-out: Percentage damage caused to weed species, post-emergence, AMARE
Protocol: (§1) Seeds of Alopecurus myosuroides (ALOMY), Setaria faberi (SETFA), Echinochloa crus-galli (ECHCG), Solanum nigrum (SOLNI), Amaranthus retroflexus (AMARE) and Ipomea hederaceae (IPOHE) were sown in standard soil in pots. After cultivation for 8 days under controlled conditions in a glasshouse (at 24/16° C., day/night; 14 hours light; 65% humidity), the plants were sprayed with an aqueous spray solution derived from the formulation of the technical active ingredient in acetone/water (50:50) solution containing 0.5% Tween 20 (polyoxyethylene sorbitan monolaurate, CAS RN 9005-64-5) to give a final dose of 1000 or 250 g/ha of test compound. The test plants were then grown on under controlled conditions in a glasshouse (at 24/16° C., day/night; 14 hours light; 65% humidity) and watered twice daily. After 13 days the test was evaluated (100=total damage to plant; 0=no damage to plant).

[2] = test system: Solanum nigrum (SOLNI); assay: as above; conditions: 312 h, 1,000 g/ha, evaluated after 13 days, 100=total damage, 0=no damage, read-out: Percentage damage caused to weed species, post-emergence, SOLNI
Protocol: as §1

[3] = test system: Setaria faberi (SETFA); assay: as above; conditions: 312 h, 1,000 g/ha, evaluated after 13 days, 100=total damage, 0=no damage, read-out: Percentage damage caused to weed species, post-emergence, SETFA
Protocol: as §1

[4] = test system: Echinochloa crus-galli (ECHCG); assay: as above; conditions: 312 h, 1,000 g/ha, evaluated after 13 days, 100=total damage, 0=no damage, read-out: Percentage damage caused to weed species, post-emergence, ECHCG
Protocol: as §1

[5] = test system: Alopecurus myosuroides (ALOMY); assay: as above; conditions: 312 h, 1,000 g/ha, evaluated after 13 days, 100=total damage, 0=no damage, read-out: Percentage damage caused to weed species, post-emergence, ALOMY
Protocol: as §1

[6] = test system: Ipomea hederaceae (IPOHE); assay: as above; conditions: Ipomoea hederacea, 312 h, 1,000 g/ha, evaluated after 13 days, 100=total damage, 0=no damage, read-out: Percentage damage caused to weed species, post-emergence, IPOHE
Protocol: as §1

[7] = test system: Amaranthus retroflexus (AMARE); assay: Pre-emergence biological efficacy, glasshouse pot test; conditions: 312 h, 1,000 g/ha, evaluated after 13 days, 100=total damage, 0=no damage, read-out: Percentage damage caused to weed species, pre-emergence, AMARE
Protocol: (§2) Seeds of Alopecurus myosuroides (ALOMY), Setaria faberi (SETFA), Echinochloa crus-galli (ECHCG), Solanum nigrum (SOLNI), Amaranthus retroflexus (AMARE) and Ipomea hederaceae (IPOHE) were sown in standard soil in pots. After cultivation for one day under controlled conditions in a glasshouse (at 24/16° C., day/night; 14 hours light; 65% humidity), the plants were sprayed with an aqueous spray solution derived from the formulation of the technical active ingredient in acetone/water (50:50) solution containing 0.5% Tween 20 (polyoxyethylene sorbitan monolaurate, CAS RN 9005-64-5) to give a final dose of 1000 or 250 g/ha of test compound. The test plants were then grown under controlled conditions in the glasshouse (at 24/16° C., day/night; 14 hours light; 65% humidity) and watered twice daily. After 13 days the test was evaluated (100=total damage to plant; 0=no damage to plant).

[8] = test system: Solanum nigrum (SOLNI); assay: as above; conditions: 312 h, 1,000 g/ha, evaluated after 13 days, 100=total damage, 0=no damage, read-out: Percentage damage caused to weed species, pre-emergence, SOLNI
Protocol: as §2

[9] = test system: Setaria faberi (SETFA); assay: as above; conditions: 312 h, 1,000 g/ha, evaluated after 13 days, 100=total damage, 0=no damage, read-out: Percentage damage caused to weed species, pre-emergence, SETFA
Protocol: as §2

[10] = test system: Echinochloa crus-galli (ECHCG); assay: as above; conditions: 312 h, 1,000 g/ha, evaluated after 13 days, 100=total damage, 0=no damage, read-out: Percentage damage caused to weed species, pre-emergence, ECHCG
Protocol: as §2

[11] = test system: Alopecurus myosuroides (ALOMY); assay: as above; conditions: 312 h, 1,000 g/ha, evaluated after 13 days, 100=total damage, 0=no damage, read-out: Percentage damage caused to weed species, pre-emergence, ALOMY
Protocol: as §2

[12] = test system: Ipomea hederaceae (IPOHE); assay: as above; conditions: Ipomoea hederacea, 312 h, 1,000 g/ha, evaluated after 13 days, 100=total damage, 0=no damage, read-out: Percentage damage caused to weed species, pre-emergence, IPOHE
Protocol: as §2

Row | Structure (SMILES) | pest or weed control at 1000 g/ha [1] [%] | pest or weed control at 1000 g/ha [2] [%] | pest or weed control at 1000 g/ha [3] [%] | pest or weed control at 1000 g/ha [4] [%] | pest or weed control at 1000 g/ha [5] [%] | pest or weed control at 1000 g/ha [6] [%] | pest or weed control at 1000 g/ha [7] [%] | pest or weed control at 1000 g/ha [8] [%] | pest or weed control at 1000 g/ha [9] [%] | pest or weed control at 1000 g/ha [10] [%] | pest or weed control at 1000 g/ha [11] [%] | pest or weed control at 1000 g/ha [12] [%]
1 | COC(=O)c1nc(Cl)c(Cl)c(NCc2ccccc2[N+](=O)[O-])c1C [Compound 15-43, 5,6-Dichloro-3-methyl-4-[(2-nitrophenyl-methyl)-amino]-pyridine-2-carboxylic acid methyl ester] | 100 | 100 | 40 | 10 | 40 | 70 | 90 | 70 | 0 | 0 | 0 | 50
2 | COC(=O)c1nc(Cl)c(Cl)c(NCc2ccccc2[N+](=O)[O-])c1C(F)(F)F [Compound 15-444, 5,6-dichloro-4-[(2-nitrophenyl-methyl)-amino]-3-trifluoromethyl-pyridine-2-carboxylic acid methyl ester] | 100 | 90 | 40 | 50 | 10 | 50 | 30 | 30 | 0 | 0 | 0 | 50
3 | COC(=O)c1nc(-c2ccc(Cl)c(OC)c2F)cc(NCc2ccc(OC)cc2OC)c1Cl [Compound 22-164, 3-Chloro-6-(4-chloro-2-fluoro-3-methoxy-phenyl)-4-[(2,4-dimethoxyphenyl-methyl)-amino]-pyridine-2-carboxylic acid methyl ester] | 100 | 90 | 60 | 60 | 0 | 70 | 80 | 80 | 10 | 60 | 20 | 70
4 | COC(=O)c1nc(Cl)cc(NCc2ccc3c(c2)OCO3)c1Cl [Compound 24-2, 3,6-Dichloro-4-[(3,4-methylenedioxy-phenylmethyl)-amino]-pyridine-2-carboxylic acid methyl ester] | 100 | 100 | 80 | 20 | 50 | 70 | 100 | 100 | 70 | 0 | 10 | 80
5 | COC(=O)c1nc(Cl)cc(NCc2ccco2)c1Cl [Compound 26-2, 3,6-dichloro-4-[(furan-2-ylmethyl)-amino]-pyridine-2-carboxylic acid methyl ester] | 100 | 100 | 90 | 30 | 40 | 60 | 100 | 100 | 90 | 30 | 70 | 90
6 | COC(=O)c1nc(Cl)cc(NCc2ccco2)c1C1CC1 [Compound 26-7, 6-chloro-3-cyclopropyl-4-[(furan-2-ylmethyl)-amino]-pyridine-2-carboxylic acid methyl ester] | 40 | 70 | 0 | 0 | 0 | 30 | 60 | 80 | 10 | 10 | 10 | 70
